Experiment [1] has as its target T1, bovine pancreatic trypsin (Bos taurus, UniProt P00760).
T1 construct: purified bovine pancreatic trypsin dissolved in trypsin assay buffer
T1 sequence (P00760 24-246): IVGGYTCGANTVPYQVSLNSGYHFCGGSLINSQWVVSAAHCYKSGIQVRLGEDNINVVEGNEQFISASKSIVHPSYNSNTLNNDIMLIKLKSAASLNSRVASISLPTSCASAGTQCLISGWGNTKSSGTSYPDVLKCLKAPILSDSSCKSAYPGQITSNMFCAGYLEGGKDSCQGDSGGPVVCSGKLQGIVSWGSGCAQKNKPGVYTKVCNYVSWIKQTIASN
Kind of experiment: Enzyme assay for the inhibition of trypsin (Z-Val-Gly-Arg-pNA substrate). It is filed as biochemical. The note with it: 3 min incubation of drug with enzyme, room temperature, pH 8.0; read-out: Trypsin IC50. The procedure:
2. Enzyme Assays for the Inhibition of Trypsin
(§1) The following reagents were used in these assays:
Trypsin assay buffer: 2 mM CaCl2, 50 mM Tris/Cl pH 8.0.
3 mM Z-Val-Gly-Arg-pNA (Chromzyme TRy) dissolved in H2 O.
6 μg/ml of purified bovine pancreatic trypsin dissolved in trypsin assay buffer.
Inhibitors to be tested were dissolved in H2 O, methanol or DMSO just prior to use.
To each well in a 96-well microtiter plate, 270 μl of assay buffer was added. Bovine trypsin (10 μl of 6 μg/ml) was added. Inhibitor (10 μl ) was added, mixed, and then incubated at room temperature for 3 min. The enzymic reaction was started with 10 μl of 3 mM Z-Val-Gly-Arg-pNA substrate. The change in optical density was measured at 405 nm at room temperature. A kinetic microplate reader (Molecular Devices Corporation Vmax) was used to measure the change in optical density over time.
Results are reported in Table 1 as IC50 values, i.e., the drug concentration in mole/liter which caused 50% inhibition of the enzyme activity (after incubation of the drug with the enzyme for 3 min).

The target in experiment [2] is T2, human α-thrombin (Homo sapiens, UniProt P00734).
T2 construct: purified human α-thrombin dissolved in thrombin assay buffer
As to the kind of experiment: Enzyme assay for the inhibition of thrombin (s-2238 substrate). The experiment is classed as biochemical. To be noted: for IC50: 3 min incubation of drug with enzyme, room temperature; for Thrombin k2 /ki (second order rate constant for inactivation of the enzyme): human α-thrombin, s-2238, pH 7.4, room temperature. The procedure: 1. Enzyme Assays for the Inhibition of Thrombin The following reagents were used in these assays: Thrombin assay buffer: 145 mM NaCl, 5 mM KCl, 30 mM N-2-hydroxyethyl piperazine-N'-2-ethanesulfonic acid, pH 7.4, 1 mg/ml polyethylene glycol (PEG-8000). 3 mM D-Phe-Pip-Arg-p-nitroanilide (s-2238) in H2 O. 3 U/ml purified human α-thrombin dissolved in thrombin assay buffer. Inhibitors to be tested were dissolved in H2 O, methanol, or DMSO just prior to use. Assay Procedure To each well in a 96-well microtiter plate, 270 μl of assay buffer was added. Human α-thrombin (10 μl of 3 U/ml) was added, then 10 μl of inhibitor were added and mixed. The samples were incubated at room temperature for a defined period of time (3 min for initial IC50 determinations). The enzymic reaction was started with 10 μl of 3 mM s-2238 substrate and continued at room temperature. The change in optical density was measured at 405 nm. A kinetic microplate reader (Molecular Devices Corporation Vmax) was used to measure the change in optical density over time. Results are reported in Table 1 as IC50 values, i.e., the drug concentration in mole/liter which caused 50% inhibition of the enzyme activity (after incubation of the drug with the enzyme for 3 min). Alternatively, results are also reported in Table 1 expressed as k2 /ki which is the second order rate constant in per mole per minute for inactivation time of the enzyme [Kitz, et al., J. Biol. Chem., 237, 3245 (1962)].

The target of experiment [3] is T2, human α-thrombin. Kind of experiment: Concentration required for doubling thrombin clotting time in human plasma. It is filed as biochemical. To be noted: human citrated plasma, 10 U/ml human thrombin; read-out: ED50, drug concentration required to double clotting time. As to the method: Procedure for Determining the Concentration Required for Doubling Thrombin Clotting Time--Clotting Time Assays The following reagents were used in these assays: Owren's Veronal Buffer: 125 mM NaCl, 28.4 mM sodium barbital, pH 7.35. Human citrated plasma obtained from human volunteers or citrated plasma obtained from IP-dosed animals (prepared as described below). 10 NIH Units/ml human α-thrombin in thrombin buffer for use with human plasma. […] The blood was centrifuged at […] (480×g) for 15 min at room temperature (using a Sorvall RT 6000B centrifuge). The plasma was removed, pooled, and aliquoted into small tubes which were stored frozen for later use. Clotting Time Measurement Clotting times were determined by pipetting 0.1 ml of Owren's buffer (pre-warmed 37° C.) and 0.1 ml of human or rat plasma into yellow sample cuvettes. For studies with human plasma 10 U/ml human thrombin (10 ml) was placed in the reservoir assembly station of the MLA 700. (Medical Laboratory Automation, Electra 700 Reservoir Assembly). For rat studies, the human thrombin concentration was 25 U/ml. The cuvettes were vortexed and then placed on the MLA 700 sample wheel. The coagulation timer (MLA 700) automatically dispenses 0.1 ml human thrombin into the sample in each cuvette. Detection of the fibrin clot was determined optically by the MLA 700. Studies were performed to determine the concentration of drug which caused a doubling of the clotting time in human plasma. From standard curves of thrombin activity added to the sample versus the clotting time, the concentration of drug which caused a doubling of the thrombin clotting time corresponded to inhibition of approximately 1/2 of the added thrombin clotting activity. Results are reported in Table 1 as ED50 values, i.e., the drug concentration required to double clotting time.

The test system of experiment [4] is Thrombin Induced Clotting Time. Kind of experiment: Thrombin induced clotting time ex vivo in plasma of i.p. dosed rats. To be noted: rat, 50 mg/kg i.p. The procedure: Procedure for Determining the Concentration Required for Doubling Thrombin Clotting Time--Clotting Time Assays
as §1
Owren's Veronal Buffer: 125 mM NaCl, 28.4 mM sodium barbital, pH 7.35.
Human citrated plasma obtained from human volunteers or citrated plasma obtained from IP-dosed animals (prepared as described below).
25 NIH Units/ml human α-thrombin in thrombin buffer for use with rat plasma.
Test compound was prepared just prior to dosing. Routinely the drugs are dissolved in water. Animals were dosed by i.p. injection.
After the appropriate time period, the animals were ether-anesthetized, and blood was drawn by cardiac puncture using 333 μl of 3.8% sodium citrate per 3 ml blood. After all of the samples were obtained, the tubes were centrifuged at 1,500 rpm for 15 min as described for the human blood samples.
Clotting Time Measurement
Clotting times were determined by pipetting 0.1 ml of Owren's buffer (pre-warmed 37° C.) and 0.1 ml of human or rat plasma into yellow sample cuvettes. For studies with human plasma 10 U/ml human thrombin (10 ml) was placed in the reservoir assembly station of the MLA 700. (Medical Laboratory Automation, Electra 700 Reservoir Assembly). For rat studies, the human thrombin concentration was 25 U/ml. The cuvettes were vortexed and then placed on the MLA 700 sample wheel. The coagulation timer (MLA 700) automatically dispenses 0.1 ml human thrombin into the sample in each cuvette. Detection of the fibrin clot was determined optically by the MLA 700.
In separate studies, two compounds, Compound XIX and Compound XI, were dosed 50 mg/kg I.P. to three rats in each study group. […] "Term" indicates "terminated sample" where a clot was unable to form after approximately 99 seconds. When this occurred, the animal plasma was diluted 1: 1 with control rat plasma and the sample tested again. If need, the animal plasma was diluted 1:4 and tested again.

Setting [5] is: 0.5 hr. post dose, undiluted plasma, per animal.

This note sets out measurements from patent US5175283A, “Azetidin-2-one derivatives as serine protease inhibitors” (Bristol-Myers Squibb Company, priority 1992, dated 1992).

Several values for one entry are separate records, joined by “and”; a condition that tells them apart may be missing. Equal values may be shown once. Where a name gives a salt, the structure may show the parent alone.

Regarding `CC(=O)N1C(=O)[C@@H](CCCNC(=N)N)[C@@H]1CCc1ccccc1` (relative stereo) [XV, trans-4-(2-Phenylethyl)-3-guanidinooropyl-1-acetyl-2azetidinone hydrochloride salt], the IC50 (usually the concentration needed to halve the response being measured) in experiment [1] amounted to 470 nM. Further, in experiment [2], the IC50 came out at 210 nM and the “Thrombin k2 /ki (second order rate constant for inactivation of the enzyme)” value (shortened to “Thrombin k2 /ki”) is listed as 1.5 × 10^6 m^-1 min^-1. The IC (2-fold clotting time) in experiment [3] came out at 3 µM.

With `COC(=O)[C@H]1[C@H](CCCNC(=N)N)C(=O)N1C(=O)Nc1ccccc1` (relative stereo) [V, trans-4-Methoxycarbonyl-3-(3-quanidinopropyl)-1-phenylaminocarbonyl-2-azetidinone hydrochloride salt], the 50% inhibitory concentration (IC50) in experiment [1] turned out to be 5 nM; in experiment [2], 1700 nM. For the same compound, the “Thrombin k2 /ki” value in experiment [2] was 8.3 × 10^4 m^-1 min^-1. In addition, the IC (2-fold clotting time) in experiment [3] was 30 µM.

On to `COC(=O)[C@H]1[C@H](CCCNC(=N)N)C(=O)N1S(=O)(=O)c1cccc2c(N(C)C)cccc12` (relative stereo) [III, trans-4-Methoxycarbonyl-3-(3-guanidinopropyl)-1-[(5-dimethylamino)-1-naphthalenesulfonyl]-2-azetidinone hydrochloride salt], for which, in experiment [1], the IC50 was determined as 720 nM. In addition, in experiment [2], the IC50 worked out at 16 nM and the “Thrombin k2 /ki” value is reported as 2.1 × 10^7 m^-1 min^-1. In experiment [3], the IC (2-fold clotting time) is recorded as 50 µM.

For `CC(=O)N1C(=O)[C@@H](CCCNC(=N)N)[C@@H]1C(=O)Nc1ccc(C)cc1` (relative stereo) [XVI, trans-4-(4-Methylbenzeneaminocarbonyl)-3-guanidinopropyl-1-acetyl-2-azetidinone hydrochloride salt], the IC50 in experiment [1] was determined as 120 nM. Moreover, in experiment [2], 25 nM corresponded to half-maximal inhibition (IC50) and the “Thrombin k2 /ki” value is given as 1.3 × 10^6 m^-1 min^-1. In experiment [3], the IC (2-fold clotting time) is 0.5 µM.

As for `CC(=O)N1C(=O)[C@@H](CCCNC(=N)N)[C@@H]1C(=O)O` (relative stereo) [XIV, trans-4-Carboxy-3-quanidinopropyl-1-acetyl-2-azetidinone hydrochloride salt], the IC50 in experiment [1] worked out at 12 nM; in experiment [2] it was 390 nM. The IC (2-fold clotting time) in experiment [3] is 12 µM.

As to `CC(=O)N1C(=O)[C@@H](CCCNC(=N)N)[C@@H]1C(=O)NCC(=O)O` (relative stereo) [Compound XIX, 4-[[(2-Hydroxy-2-oxoethyl)amino]carbonyl]-3-(3-guanidinopropyl)-1-acetyl-2-azetidinone hydrochloride salt], in experiment [2], half-maximal inhibition (IC50) was put at 12 nM and the “Thrombin k2 /ki” value is 2.0 × 10^7 m^-1 min^-1. The “Thrombin Induced Clotting Time (1:1 Control Plasma)” value in experiment [4] (0.5 hr. post dose, plasma diluted 1:1 with control rat plasma, hydrochloride salt, 50 mg/kg, in s) was 14.4 and 17.3. In experiment [4] (setting [5]), the “Thrombin Induced Clotting Time” value stood at 45.2 s and the “Thrombin Induced Clotting Time, terminated samples” value is reported as “term. ("terminated sample" where a clot was unable to form after approximately 99 seconds)”. The “Thrombin Induced Clotting Time” value in experiment [4] (2 hr. post dose, undiluted plasma, per animal, hydrochloride salt, 50 mg/kg) is 12.9 s and 13.3 s and 14.4 s. Also, the “Thrombin Induced Clotting Time” value in experiment [4] (5 hr. post dose, undiluted plasma, per animal, hydrochloride salt, 50 mg/kg) is 13.5 s and 13.6 s and 13.3 s. Also, the “Clotting time ex vivo, result in words” value in experiment [4] (three rats per group) is given as “prolonged clotting time”. Besides, in experiment [3], the IC (2-fold clotting time) was 0.43 µM.

For the compound `CCS[C@H]1[C@H](CCCNC(=N)N)C(=O)N1C(C)=O` (relative stereo) [VII, trans-4-Ethylthio-3-quanidinopropyl-1-acetyl-2-azetidinone hydrochloride salt], in experiment [1], the IC50 is 36 nM. In addition, in experiment [2], 12.5 nM corresponded to half-maximal inhibition (IC50) and the “Thrombin k2 /ki” value is listed as 5.6 × 10^6 m^-1 min^-1. The IC (2-fold clotting time) in experiment [3] was determined as 0.75 µM.

`COC(=O)[C@H]1[C@H](CCCNC(=N)N)C(=O)N1S(C)(=O)=O.Cl` (relative stereo) [IV, trans-4-Methoxycarbonyl-3-(guanidinopropyl)-1-methylsulfonyl-2-azetidinone hydrochloride salt]: the IC50 in experiment [1] came out at 70 nM. Also, in experiment [2], the IC50 turned out to be 20 nM and the “Thrombin k2 /ki” value is 1.5 × 10^6 m^-1 min^-1.
